In PMC12409781 (RSC Advances, 2025):

Legend:
Assay in all cases: Cell viability assay
Format in all cases: cell-based
KPC = conditions: 72 h, read-out: IC50 KPC
MIA PaCa-2 = conditions: Homo sapiens, MIA PaCa-2, 72 h, read-out: IC50 MIA PaCa-2
Panc-1 = conditions: Homo sapiens, PANC-1, 72 h, read-out: IC50 Panc-1, 72 hours, CCK-8

IC50 (MIA PaCa-2): 7.83 ± 0.28 µM
IC50 (Panc-1): 11.6 ± 0.56 µM
SMILES: Nc1ccn([C@@H]2O[C@H](CO)[C@@H](O)C2(F)F)c(=O)n1 [Gemcitabine]
IC50 (KPC): 5.36 ± 0.25 µM
